# Tests used:
# [1] = target: Beta-2 adrenergic receptor (Homo sapiens, UniProt P07550)
# Description: Agonist activity at human beta2 adrenoceptor expressed in HEK293 cells assessed as induction of accumulation of cAMP by HTRF assay
# [2] = target: Beta-1 adrenergic receptor (Homo sapiens, UniProt P08588)
# Description: Agonist activity at human beta1 adrenoceptor expressed in HEK293 cells assessed as induction of accumulation of cAMP by HTRF assay
# Trachea = experiment: Induction of smooth muscle relaxation in male Dunkin-Hartley guinea pig trachea strips assessed as maximal relaxation of histamine phosphate-induced guinea pig airway smooth muscle contraction relative to control; conditions: Cavia porcellus
# [3] = Tmax in male Balb/c mouse at 10 mg/kg, po measured upto 24 hrs by LC-MS/MS analysis; assay type: ADME, organism-based; conditions: in vivo
# [4] = Half life in male Balb/c mouse at 10 mg/kg, po measured upto 24 hrs by LC-MS/MS analysis; assay type: ADME, organism-based; conditions: in vivo
# [5] = AUC (0 to t) in male Balb/c mouse at 10 mg/kg, po measured upto 24 hrs by LC-MS/MS analysis; assay type: ADME, organism-based; conditions: in vivo
# [6] = MRT in male Balb/c mouse at 10 mg/kg, po measured upto 24 hrs by LC-MS/MS analysis; assay type: ADME, organism-based; conditions: in vivo
# [7] = AUC (0 to infinity) in male Balb/c mouse at 2 mg/kg, iv measured upto 24 hrs by LC-MS/MS analysis; assay type: ADME, organism-based; conditions: in vivo
# [8] = Clearance in male Balb/c mouse at 2 mg/kg, iv measured upto 24 hrs by LC-MS/MS analysis; assay type: ADME, organism-based; conditions: in vivo
# [9] = Oral bioavailability in male Balb/c mouse at 10 mg/kg measured upto 24 hrs by LC-MS/MS analysis; assay type: ADME, organism-based; conditions: in vivo
# [10] = Cmax in male Balb/c mouse at 2 mg/kg, iv measured upto 24 hrs by LC-MS/MS analysis; assay type: ADME, organism-based; conditions: in vivo
# [11] = Half life in male Balb/c mouse at 2 mg/kg, iv measured upto 24 hrs by LC-MS/MS analysis; assay type: ADME, organism-based; conditions: in vivo
# [12] = MRT (0 to infinity) in male Balb/c mouse at 10 mg/kg, po measured upto 24 hrs by LC-MS/MS analysis; assay type: ADME, organism-based; conditions: in vivo
# [13] = AUC (0 to infinity) in male Balb/c mouse at 10 mg/kg, po measured upto 24 hrs by LC-MS/MS analysis; assay type: ADME, organism-based; conditions: in vivo
# [14] = MRT in male Balb/c mouse at 2 mg/kg, iv measured upto 24 hrs by LC-MS/MS analysis; assay type: ADME, organism-based; conditions: in vivo
# [15] = Cmax in male Balb/c mouse at 10 mg/kg, po measured upto 24 hrs by LC-MS/MS analysis; assay type: ADME, organism-based; conditions: in vivo
# [16] = Apparent volume of distribution in male Balb/c mouse at 2 mg/kg, iv measured upto 24 hrs by LC-MS/MS analysis; assay type: ADME, organism-based; conditions: in vivo, read-out: Vd(app)
# [17] = Tmax in male Balb/c mouse at 2 mg/kg, iv measured upto 24 hrs by LC-MS/MS analysis; assay type: ADME, organism-based; conditions: in vivo
# [18] = MRT (0 to infinity) in male Balb/c mouse at 2 mg/kg, iv measured upto 24 hrs by LC-MS/MS analysis; assay type: ADME, organism-based; conditions: in vivo
# [19] = AUC (0 to t) in male Balb/c mouse at 2 mg/kg, iv measured upto 24 hrs by LC-MS/MS analysis; assay type: ADME, organism-based; conditions: in vivo
# Beta-1 adrenergic receptor, sequence (P08588 whole entry): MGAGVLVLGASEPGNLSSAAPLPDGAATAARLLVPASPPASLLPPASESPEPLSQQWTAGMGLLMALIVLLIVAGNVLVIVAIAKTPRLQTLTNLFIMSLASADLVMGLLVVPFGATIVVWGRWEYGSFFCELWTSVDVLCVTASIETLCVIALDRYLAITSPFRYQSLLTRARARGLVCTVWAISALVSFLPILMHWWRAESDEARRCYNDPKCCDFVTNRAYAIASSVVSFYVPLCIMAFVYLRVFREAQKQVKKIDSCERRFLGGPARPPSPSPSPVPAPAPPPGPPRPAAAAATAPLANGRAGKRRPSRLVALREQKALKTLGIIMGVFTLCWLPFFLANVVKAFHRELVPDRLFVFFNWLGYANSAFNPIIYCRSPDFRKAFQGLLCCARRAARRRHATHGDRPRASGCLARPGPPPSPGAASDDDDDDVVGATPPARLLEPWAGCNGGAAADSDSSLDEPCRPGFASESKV
# Beta-2 adrenergic receptor, sequence (P07550 whole entry): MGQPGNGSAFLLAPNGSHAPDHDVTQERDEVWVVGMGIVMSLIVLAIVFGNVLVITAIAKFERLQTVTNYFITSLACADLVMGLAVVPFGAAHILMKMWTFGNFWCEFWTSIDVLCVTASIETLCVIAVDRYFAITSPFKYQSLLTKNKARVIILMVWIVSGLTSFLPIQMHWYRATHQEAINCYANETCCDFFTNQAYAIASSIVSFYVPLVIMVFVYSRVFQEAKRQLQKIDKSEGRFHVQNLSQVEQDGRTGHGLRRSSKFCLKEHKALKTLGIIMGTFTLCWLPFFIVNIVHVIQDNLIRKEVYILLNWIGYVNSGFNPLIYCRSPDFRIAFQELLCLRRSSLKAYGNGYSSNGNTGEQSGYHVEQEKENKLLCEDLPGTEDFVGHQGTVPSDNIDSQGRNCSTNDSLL
SMILES,EC50 [1] [nM],EC50 [2] [nM],Emax (Trachea) [%],further results
CCCNCC(O)c1ccc(O)c2c1OCC(=O)N2 (stereo unspecified),0.0316,14.5,60.5,
O=C1COc2c(C(O)CNCCCc3ccccc3F)ccc(O)c2N1 (stereo unspecified),0.00479,0.17,90.5,
COc1cccc(CCNCC(O)c2ccc(O)c3c2OCC(=O)N3)c1 (stereo unspecified),0.00871,,,
O=C1COc2c(C(O)CNCCCc3ccccc3)ccc(O)c2N1 (stereo unspecified),0.00589,0.257,237,
COc1cccc(CCCNCC(O)c2ccc(O)c3c2OCC(=O)N3)c1 (stereo unspecified),0.00794,,,
O=C1COc2c(C(O)CNCCc3cccc(F)c3)ccc(O)c2N1 (stereo unspecified),0.024,1.38,94.9,
O=C1COc2c(C(O)CNCCC(c3ccccc3)c3ccccc3)ccc(O)c2N1 (stereo unspecified),0.0468,2.24,63.3,
O=C1COc2c(C(O)CNCCCc3cccc(O)c3)ccc(O)c2N1 (stereo unspecified),0.00437,0.138,87.4,
COc1ccc(CCCNCC(O)c2ccc(O)c3c2OCC(=O)N3)cc1 (stereo unspecified),0.0038,0.513,74.2,
Cc1ccccc1CCCNCC(O)c1ccc(O)c2c1OCC(=O)N2 (stereo unspecified),,0.324,,
COc1ccccc1CCNCC(O)c1ccc(O)c2c1OCC(=O)N2.Cl (stereo unspecified),,,,Tmax [3]: 5.33 h; half-life [4]: 3.77 h; AUC(0-t) at 24 h [5]: 294 ng·h/mL; MRT [6]: 5.92 h; AUC [7]: 338 ng·h/mL; clearance [8]: 102 mL/min/kg; F [9]: 7.65%; Cmax [10]: 416 ng/mL; half-life [11]: 5.21 h; MRT inf [12]: 6.98 h; AUC [13]: 306 ng·h/mL; MRT [14]: 2.67 h; Cmax [15]: 24 ng/mL; Vd [16]: 44 L/kg; Tmax [17]: 4.98 min; MRT inf [18]: 3.43 h; AUC(0-t) at 24 h [19]: 329 ng·h/mL
O=C1COc2c(C(O)CNC3CC3)ccc(O)c2N1 (stereo unspecified),0.0224,1.32,123,
O=C1COc2c(C(O)CNCCCCc3ccccc3)ccc(O)c2N1 (stereo unspecified),,0.309,,
O=C1COc2c(C(O)CNCCCc3cccc(C(F)(F)F)c3)ccc(O)c2N1 (stereo unspecified),,0.513,,
Cc1cccc(CCCNCC(O)c2ccc(O)c3c2OCC(=O)N3)c1 (stereo unspecified),,0.245,,
CC(C)NCC(O)c1ccc(O)c(O)c1 (stereo unspecified) [ISOPROTERENOL],,,141,
COc1ccc(CC(C)(C)NC[C@H](O)c2cc(O)cc3c2OCC(=O)N3)cc1 [OLODATEROL],,33.9,,

# Further lines, with some results ahead:
EC50 [1] [nM],EC50 [2] [nM],SMILES,Emax (Trachea) [%],further results
0.0055,1.2,O=C1COc2c(C(O)CNCCCc3ccc(C(F)(F)F)cc3)ccc(O)c2N1 (stereo unspecified),132,
0.00468,,O=C1COc2c(C(O)CNCCCc3cccc(F)c3)ccc(O)c2N1 (stereo unspecified),126,
0.00457,0.178,COc1ccccc1CCCNCC(O)c1ccc(O)c2c1OCC(=O)N2 (stereo unspecified),109,
0.0038,0.245,O=C1COc2c(C(O)CNCCCc3ccc(F)cc3)ccc(O)c2N1 (stereo unspecified),69.5,
,1.82,CC(C)NCC(O)c1ccc(O)c2c1OCC(=O)N2 (stereo unspecified),,
0.0115,4.07,O=C1COc2c(C(O)CNCCc3ccccc3F)ccc(O)c2N1 (stereo unspecified),128,
0.0269,3.72,O=C1COc2c(C(O)CNCCc3cccc(Cl)c3)ccc(O)c2N1 (stereo unspecified),65.3,
,1.7,O=C1COc2c(C(O)CNCCOc3ccccc3)ccc(O)c2N1 (stereo unspecified),,
,2.19,CCCCCCNCC(O)c1ccc(O)c2c1OCC(=O)N2 (stereo unspecified),,
0.00759,,Cc1ccc(CCCNCC(O)c2ccc(O)c3c2OCC(=O)N3)cc1 (stereo unspecified),,
,5.37,O=C1COc2c(C(O)CNCCc3ccccc3Cl)ccc(O)c2N1 (stereo unspecified),,
0.0257,16.6,CCCCNCC(O)c1ccc(O)c2c1OCC(=O)N2 (stereo unspecified),53.3,
0.00575,0.12,O=C1COc2c(C(O)CNCCCc3ccc(O)cc3)ccc(O)c2N1 (stereo unspecified),181,
,1.91,O=C1COc2c(C(O)CNCCc3ccccc3)ccc(O)c2N1 (stereo unspecified),,
0.0132,2.19,COc1ccc(CCNCC(O)c2ccc(O)c3c2OCC(=O)N3)cc1 (stereo unspecified),59.6,
,0.105,O=C1COc2c(C(O)CNCCCc3cc(F)cc(F)c3)ccc(O)c2N1 (stereo unspecified),,
0.0537,1.58,COc1cc(CCCNCC(O)c2ccc(O)c3c2OCC(=O)N3)cc(OC)c1OC (stereo unspecified),142,
,2.14,CC(C)(C)NCC(O)c1ccc(O)c2c1OCC(=O)N2 (stereo unspecified),,
,0.129,O=C1COc2c(C(O)CNCCCc3ccccc3O)ccc(O)c2N1 (stereo unspecified),,
0.00537,3.72,O=C1COc2c(C(O)CNCCc3ccc(F)cc3)ccc(O)c2N1 (stereo unspecified),76.7,
1.32,1000,O=C1COc2c(C(O)CNCCc3ccc(Cl)cc3)ccc(O)c2N1 (stereo unspecified),86.7,
0.0282,0.912,Cc1ccccc1CCNCC(O)c1ccc(O)c2c1OCC(=O)N2 (stereo unspecified),135,

# Source: ChEMBL document CHEMBL5528055, “Discovery and Identification of Novel 5-Hydroxy-4H-benzo[1,4]oxazin-3-one Derivatives as Potent β2-Adrenoceptor Agonists through Structure-Based Design, Synthesis, and Biological Evaluation” (J Med Chem, 2024)
